The source of these data is patent US20250345334A1, “METHODS OF TREATING PROSTATE CANCER” (The University of Chicago, priority 2024, published 2025).

“Also recorded” adds a separate entry of the source.

For assay [1], the system named is NCI-H660 cells. The following applies: 6 days.
Assay [2] deals with NCI-H660 cells. Nature of the assay: cells. The following applies: Homo sapiens, NCI-H660, 144 h, read-out: % cell viability relative to 10 nM HC treatment.
For assay [3], the system named is CWRR1-SOX2KO cells. Nature of the assay: Proliferation assay, Incucyte S3 live imaging of nuclear GFP, CWRR1-SOX2KO cells. The assay is classed as cell-based, human. The conditions noted are these: 10% CSS supplemented with R-1881, 150 h.
The subject of assay [4] is CWRR1-Ctl cells. Nature of the assay: Proliferation assay, Incucyte S3 live imaging of nuclear GFP, SOX2-positive CWRR1-Ctl cells. The following applies: 10% CSS supplemented with R-1881, 150 h (~6 days). Type of assay: cell-based, human.
Assay [5] deals with CDK1, pCDK1, pHistone H3 and cleaved PARP in CWRR1-Ctl cells. Nature of the assay: Western blotting in CWRR1-Ctl cells. Type of assay: cell-based, human. The conditions noted are these: Western blot. On the technique in general: In western blotting, separated proteins are transferred to a membrane and probed.
The test system of assay [6] is E2F1, WEE1, CDK1 and p57 in SOX2KO cells. Nature of the assay: Western blotting in CWRR1-SOX2KO cells. The following applies: Western blot. Type of assay: cell-based, human. The procedure: FIGS. 1A-1D. RNA-seq in Control (Ctl) and -SOX2Ko Cells. Ctl or SOX2^KO cells were cultured in 10% charcoal-stripped media with vehicle (R-1881) or ENZ for 72 hrs, then total RNA was recovered for RNA-seq. […] (FIG. 1B) Top gene set pathways enriched by KEGG using Web Gestalt for unique, differentially expressed genes in SOX2^KO cells following ENZ treatment relative to vehicle. Pathways are ranked by strength of significance (P-value). (FIG. 1C) Normalized counts from RNA-seq of representative cell cycle-related genes (CDK1, E2F1, WEE1, CDKN2A, TGFB1, and CDKN1C) across treatment conditions for Ctl and SOX2^KO cells are graphed. Error bars for normalized count data represent +/−SEM for triplicate samples in each condition. Asterisks represent significant differences with the following adjusted p-values: **1E-03 to 1E-09, ***1.0E-10 to 1.0E-19, ****[…] 1.0E-20. (FIG. 1D) Western blots in Ctl and SOX2^KO cells treated with (3.5 μM R-1881) vehicle or ENZ ([…]) for SOX2 and cell cycle proteins encoded by highlighted genes: WEE1, E2F1, CDK1, and p57, confirm relative expression levels observed by RNA-seq. j-Actin was blotted as a loading control. […]

Assay [7] deals with CWRR1-Ctl cells. Nature of the assay: Propidium iodide staining, cell cycle status. The following applies: 10 μM ENZ, 0.8 μM MK-1775, 6 days. Type of assay: cell-based, human. The procedure:
FIGS. 5A-5C. […] (FIG. 5A) Western blotting in CWRR1-Ctl cells cultured in 10% CSS supplemented with R-1881 and treated with: Vehicle (R; 3.5 μM R-1881), and AR-inhibited conditions ([…] R/10 μM ENZ)+/−0.8 μM MK-1775 (WEE1 inhibition) comparing phosphorylated Histone H3 (indicator of cells in M phase) and cleaved PARP (indicator of apoptosis). 3-Actin was blotted as a loading control. […] (FIG. 5C) β-galactosidase activity in CWRR1-Ctl cells treated with either 10 μM ENZ or 10 μM ENZ in combination with 0.8 μM MK-1775 for 6 days. […] Error bars for propidium iodide staining and β-galactosidase activity data represent +/−SEM of 6 replicates tested in each condition, respectively.
WEE1 plays a central role in negatively regulating mitotic phase entry (i.e. the G2/M checkpoint) through phosphorylation of CDK1 [29]. […] PARP-1 is a known substrate of caspase-mediated apoptotic cell death, and cleaved PARP (c-PARP) is a hallmark of apoptosis.

In assay [8] the test system is CWRR1-Ctl xenograft tumors. Nature of the assay: CRPC xenograft model, time to 4x tumor volume. Type of assay: in vivo, athymic nude mice. The following applies: 10 mg/kg ENZ, 50 mg/kg MK-1775, daily for 30 days; for median time to endpoint (4x tumor volume relative to volume at randomization): censored at day 31. Here is the method:
To strengthen the correlation between in vitro and […] studies thereby enhancing translational relevance, an in vivo experiment using a CRPC xenograft model was performed. Following inoculation with CWRR1-Ctl cells, tumor bearing athymic nude mice with a measured tumor volume of ˜150-200 mm^3 were randomized into 4 treatment arms: Vehicle (N=5), 10 mg/kg ENZ (N=8), 50 mg/kg MK-1775 (N=8), and 10 mg/kg ENZ+50 mg/kg MK-1775 (N=8). Mice were treated daily for a period of 30 days. Endpoint for this study was defined as time to 4× tumor volume relative to volume at randomization, representing a lethal tumor burden. Mice who had not reached endpoint at 30 days of treatment were censored at day 31. […] Median time to endpoint for vehicle-, ENZ- and WEE1i-treated mice was 21, 29.5 and 29.5 days, respectively, compared to ENZ+WEE1i-treated mice, which was not reached, as 75% of mice remained without defined progression at 31 days (FIG. 4D).

Assay [9] relates to CDK1, pCDK1 and pHistone H3 in NCI-H660 cells. Nature of the assay: Western blotting in NCI-H660 cells. The following applies: Western blot. Type of assay: cell-based, human.

As a reminder, the viability is a read-out of living cells in per cent, often relative to untreated cells. As to `Cn1cc(S(=O)(=O)N2CCC3=Cc4c(cnn4-c4ccc(F)cc4)C[C@]3(C(=O)c3cc(C(F)(F)F)ccn3)C2)cn1` [CORT134, relacorilant], the “cell viability relative to control” value in assay [1] is “minimal differences”. The viability at 1 µM in assay [2] is 91.8%.
Take `C[C@@H]1C[C@H]2[C@@H]3CCC4=CC(=O)C=C[C@]4(C)[C@@]3(F)[C@@H](O)C[C@]2(C)[C@@]1(O)C(=O)CO` [DEX, dexamethasone]: the viability at 0.1 µM in assay [2] turned out to be 105%.
As to `CNC(=O)c1ccc(N2C(=S)N(c3ccc(C#N)c(C(F)(F)F)c3)C(=O)C2(C)C)cc1F` [ENZ, enzalutamide], the “proliferative capacity compared to vehicle” value in [3] is given as “significantly lower”. The “proliferative capacity relative to vehicle” value in [4] is “no effect; also recorded: little effect”. The “phosphorylated Histone H3 (pHistone H3)” value in [5] is reported as “low”. In addition, the “E2F1, WEE1 and CDK1 expression levels” value in assay [6] (SOX2KO cells upon AR inhibition) is “notably lower”. Also, the p57 expression result in [6] (SOX2KO cells with AR antagonism) is on record as “highest expression”. Besides, the “% cells at G2/M cell cycle phase” value in assay [7] was 11.95%. Further, in assay [8], the “time to endpoint relative to vehicle” value is “no significant differences” and the “median time to endpoint (4x tumor volume relative to volume at randomization)” value is 29.5 days.
Take `C=CCn1c(=O)c2cnc(Nc3ccc(N4CCN(C)CC4)cc3)nc2n1-c1cccc(C(C)(C)O)n1` [MK-1775]: the “proliferative capacity relative to vehicle” value in assay [4] is on record as “no significant difference”. In addition, in assay [5], the “cleaved PARP (c-PARP)” value is listed as “increased” and the “phosphorylated Histone H3 (pHistone H3)” value is listed as “increases appreciably”. Also, the pCDK1 protein expression result in [5] (when WEE1i was present) was “markedly lower”. Besides, the “pHistone H3 relative to DEX and CORT134 treatment alone” value in assay [9] is on record as “increased”. Further, in assay [8], the “time to endpoint relative to vehicle” value is reported as “no significant differences” and the “median time to endpoint (4x tumor volume relative to volume at randomization)” value is 29.5 days.
